Measured values reported in patent US20020122813A1, “Insect attractants” (priority 1999, published 2002).
“Also recorded” adds a separate entry of the source.

Columns and labels:
Ae aegypti = settings: structural activity relationship study of lactic acid analogues; cited from earlier work
Anopheles gambiae s.s. = assay: wind tunnel landing bioassay on heated glass cylinders with filter papers; format: in vivo; settings: for landing response compared to water control, comparative bioassay of α-oxo-carboxylic acids: FIG. 5, 6 replicates
Method: Trials used either Aedes aegypti or the Tanzanian KWA strain of Anopheles gambiae s.s., both obtained from the London School of Hygiene and Tropical Medicine. The rearing and bioassay rooms were maintained at 27° C. ±2° and 70% RH ±10%. […] To circumvent this problem we concentrated on investigating the landing responses of An gambiae s.s. on heated glass cylinders treated with sweat and sweat extracts. The bioassay was conducted in a wind tunnel^9 that was connected to 2 identical flight chambers, stainless steel frames 1.0 m long, covered in thin gauge plastic tubing and sealed at both ends with mosquito netting, FIG. 1. Twenty, 5-8 day old An gambiae s.s. females were introduced into each flight chamber. The mosquitoes were activated with 2 pulses of carbon dioxide, diluted with filtered air to give pulses of 0.1% above background. Activated mosquitoes flew upwind and approached heated (34° C., human skin temperature) glass cylinders to which strips of filter paper were attached. […] All bioassays began on the 3rd hour of the night period (21.00 h). To collect sweat, strips of filter paper were strapped around the leg, just above the ankle, of a human volunteer for 24 h. A strip of sweat impregnated filter paper was placed onto one cylinder and a filter paper dampened with […] of distilled water was placed onto the second, the control, cylinder The bioassay was repeated 6 times, the position of the sweat and the control filter papers alternated between bioassays. […] The response to the sweat declined during the bioassay, FIG. 3A, and is probably due to the evaporation of behaviourally active volatiles.

Aedes aegypti = assay: as above; format: in vivo; settings: in water at 1 μg/μl; FIG. 4
Method: Trials used either Aedes aegypti or the Tanzanian KWA strain of Anopheles gambiae s.s., both obtained from the London School of Hygiene and Tropical Medicine. The rearing and bioassay rooms were maintained at 27° C. ±2° and 70% RH ±10%. The rearing room was kept on a 12/12 light dark cycle of 170 Wm^−2 and 0.3 Wm^−2 respectively with a 30 minute dusk period of 0.5 Wm^−2 at the day night interface.
To circumvent this problem we concentrated on investigating the landing responses of An gambiae s.s. on heated glass cylinders treated with sweat and sweat extracts. The bioassay was conducted in a wind tunnel^9 that was connected to 2 identical flight chambers, stainless steel frames 1.0 m long, covered in thin gauge plastic tubing and sealed at both ends with mosquito netting, FIG. 1. Twenty, 5-8 day old An gambiae s.s. females were introduced into each flight chamber. The mosquitoes were activated with 2 pulses of carbon dioxide, diluted with filtered air to give pulses of 0.1% above background. Activated mosquitoes flew upwind and approached heated (34° C., human skin temperature) glass cylinders to which strips of filter paper were attached. The number of mosquitoes landing per minute on each filter paper was recorded for 10 min by infra-red sensitive video cameras situated downwind of the flight chambers. All bioassays began on the 3rd hour of the night period (21.00 h). […]

For `CCCC(=O)C(=O)O` [2-oxopentanoic acid], the “attractiveness relative to lactic acid” value (Ae aegypti) is listed as “as attractive as lactic acid”, the “landing response compared to water control, comparative bioassay of α-oxo-carboxylic acids” value (Anopheles gambiae s.s.) is listed as “greatest response” and the “time of peak of landing response” value (Anopheles gambiae s.s.; during 10 min bioassay) is listed as 4 min. The “total number of landings (TNL)” value (Anopheles gambiae s.s.; in water at 1 μg/μl vs water control) was 352, the “landing response compared to control (significance)” value (Anopheles gambiae s.s.; in water at 1 μg/μl vs water control, P<0.001) was “did elicit significant levels of landings” and the “landing response (significance)” value (Aedes aegypti) was “elicited significant levels of landings; also recorded: did elicit significant levels of landings”.

For `CC(C)C(=O)C(=O)O` [3-methyl,2-oxobutanoic acid], the “landing response compared to water control, comparative bioassay of α-oxo-carboxylic acids” value (Anopheles gambiae s.s.) was “did elicit significant levels of landings”.

For `CCO` [ethanol], the “total number of landings (TNL)” value (Anopheles gambiae s.s.; ethanol vs blank control) was 141 and the “landing response compared to control (significance)” value (Anopheles gambiae s.s.; ethanol vs blank control, P>0.05) was “not a significant difference”.

With `CC(O)C(=O)O` (stereo not drawn) [lactic acid, L(+) lactic acid (2-hydroxypropanoic), reference compound] the “total number of landings (TNL)” value (Anopheles gambiae s.s.; in ethanol at 0.2 μg/μl vs ethanol control) was 167 and the “landing response compared to control (significance)” value (Anopheles gambiae s.s.; in ethanol at 0.2 μg/μl vs ethanol control, P>0.05) was “did not elicit significant levels of landings”.

For `CCC(=O)C(=O)O` [oxobutanoic acid], the “landing response compared to water control, comparative bioassay of α-oxo-carboxylic acids” value (Anopheles gambiae s.s.) was “did elicit significant levels of landings”.

For `CC(=O)C(=O)O` [oxopropanoic acid], the “landing response compared to water control, comparative bioassay of α-oxo-carboxylic acids” value (Anopheles gambiae s.s.) was “did elicit significant levels of landings”.
